Reference: patent US12173020B2, “New-type oxazolidinone compounds and preparation method therefor” (priority 2019, dated 2024)

Tests used:
[1] = tested on: vancomycin-resistant Enterococcus (VRE); assay: agar dilution method, inhibitory effect on VRE; assay type: cell-based; conditions: for MIC50: Enterococcus, read-out: Minimum inhibitory concentration (MIC50, μg/ml) VRE
Text: (§1) In order to determine the antibacterial activity of these new oxazolidinone-based compounds, an agar dilution method was used to test the inhibitory effect on methicillin-resistant Staphylococcus aureus (MRSA) and vancomycin-resistant Enterococcus (VRE). The bacteria inhibition effect was expressed as minimum inhibitory concentration (MIC50, μg/ml) The test results are shown in the following table.

[2] = tested on: methicillin-resistant Staphylococcus aureus (MRSA); assay: agar dilution method, inhibitory effect on MRSA; assay type: cell-based; conditions: for MIC50: Staphylococcus aureus, read-out: Minimum inhibitory concentration (MIC50, μg/ml) MRSA
Text: as §1

| SMILES | MIC50 [1] [µg/mL] | MIC50 [2] [µg/mL] | Minimum inhibitory concentration (MIC50, μg/ml) VRE [1] [µg/mL] | Minimum inhibitory concentration (MIC50, μg/ml) MRSA [2] [µg/mL] |
| --- | --- | --- | --- | --- |
| CCn1nnc(-c2ccc(-c3ccc(N4C[C@H](C(O)CF)OC4=O)cc3F)cn2)n1.O=P(O)(O)O (stereo partly drawn) [compound 135, (R)-3-(3-fluoro-4-(6-(2-ethyl-2H-tetrazol-5-yl)pyridin-3-yl)phenyl)-5-(1-hydroxy-2-fluoroethyl) oxazolidin-2-one phosphate] | 0.3 | 0.4 |  |  |
| CCn1nnc(-c2ccc(-c3ccc(N4C[C@@H](C(O)C5CC5)OC4=O)cc3F)cn2)n1.O=P(O)(O)O (stereo partly drawn) [compound 138, (S)-3-(3-fluoro-4-(6-(2-ethyl-2H-tetrazol-5-yl)pyridin-3-yl)phenyl)-5-(1-hydroxy-1-cyclopropylmethyl) oxazolidin-2-one phosphate] | 1 | 1 |  |  |
| CCCn1nnc(-c2ccc(-c3ccc(N4C[C@H](C(O)CF)OC4=O)cc3F)cn2)n1.O=P(O)(O)O (stereo partly drawn) [compound 141, (R)-3-(3-fluoro-4-(6-(2-propyl-2H-tetrazol-5-yl)pyridin-3-yl)phenyl)-5-(1-hydroxy-2-fluoroethyl) oxazolidin-2-one phosphate] | 0.2 | 0.3 |  |  |
| CCCn1nnc(-c2ccc(-c3ccc(N4C[C@@H](C(O)C(F)F)OC4=O)cc3F)cn2)n1.O=P(O)(O)O (stereo partly drawn) [compound 140, (S)-3-(3-fluoro-4-(6-(2-propyl-2H-tetrazol-5-yl)pyridin-3-yl)phenyl)-5-(1-hydroxy-2-difluoroethyl) oxazolidin-2-one phosphate] |  |  | 0.4 | 0.4 |
| C=Cn1nnc(-c2ccc(-c3ccc(N4C[C@@H](C(O)F)OC4=O)cc3F)cn2)n1.O=P(O)(O)O (stereo partly drawn) [compound 126, (S)-3-(3-fluoro-4-(6-(2-vinyl-2H-tetrazol-5-yl)pyridin-3-yl)phenyl)-5-(hydroxyfluoromethyl) oxazolidin-2-one phosphate] | 0.7 | 0.7 |  |  |
| C=Cn1nnc(-c2ccc(-c3ccc(N4C[C@@H](C(C)O)OC4=O)cc3F)cn2)n1.O=P(O)(O)O (stereo partly drawn) [compound 122, (S)-3-(3-fluoro-4-(6-(2-vinyl-2H-tetrazol-5-yl)pyridin-3-yl)phenyl)-5-(1-hydroxyethyl) oxazolidin-2-one phosphate] | 0.9 | 1 |  |  |
| CCCn1nnc(-c2ccc(-c3ccc(N4C[C@@H](CO)OC4=O)cc3F)cn2)n1.O=P(O)(O)O [compound 82, (S)-3-(3-fluoro-4-(6-(2-propyl-2H-tetrazol-5-yl)pyridin-3-yl)phenyl)-5-(hydroxymethyl) oxazolidin-2-one phosphate] | 1.2 | 1.2 |  |  |
| C=Cn1nnc(-c2ccc(-c3ccc(N4C[C@@H](C(OP(=O)(O)O)C(F)(F)F)OC4=O)cc3F)cn2)n1 (stereo partly drawn) [compound 120, (S)-3-(3-fluoro-4-(6-(2-vinyl-2H-tetrazol-5-yl)pyridin-3-yl)phenyl)-5-(1-hydroxy-2-trifluoroethyl) oxazolidin-2-one phosphate] |  |  | 0.2 | 0.2 |
| CCn1nnc(-c2ccc(-c3ccc(N4C[C@@H](C(OP(=O)(O)O)C(F)(F)F)OC4=O)cc3F)cn2)n1 (stereo partly drawn) [compound 96, (S)-3-(3-fluoro-4-(6-(2-ethyl-2H-tetrazol-5-yl)pyridin-3-yl)phenyl)-5-(1-hydroxy-2-trifluoroethyl) oxazolidin-2-one phosphate] |  |  | 0.8 | 0.8 |
| CCn1nnc(-c2ccc(-c3ccc(N4C[C@@H](C(O)CF)OC4=O)cc3F)cn2)n1.O=P(O)(O)O (stereo partly drawn) [compound 136, (S)-3-(3-fluoro-4-(6-(2-ethyl-2H-tetrazol-5-yl)pyridin-3-yl)phenyl)-5-(1-hydroxy-2-fluoroethyl) oxazolidin-2-one phosphate] | 0.2 | 0.4 |  |  |
| C=Cn1nnc(-c2ccc(-c3ccc(N4C[C@@H](C(O)CF)OC4=O)cc3F)cn2)n1.O=P(O)(O)O (stereo partly drawn) [compound 154, (S)-3-(3-fluoro-4-(6-(2-vinyl-2H-tetrazol-5-yl)pyridin-3-yl)phenyl)-5-(1-hydroxy-2-fluoroethyl) oxazolidin-2-one phosphate] | 0.3 | 0.4 |  |  |
| Cn1nnc(-c2ccc(-c3ccc(N4C[C@@H](C(O)C5CC5)OC4=O)cc3F)cn2)n1.O=P(O)(O)O (stereo partly drawn) [compound 132, (S)-3-(3-fluoro-4-(6-(2-methyl-2H-tetrazol-5-yl)pyridin-3-yl)phenyl)-5-(1-hydroxy-1-cyclopropylmethyl) oxazolidin-2-one phosphate] | 0.3 | 0.3 |  |  |
| C=Cn1nnc(-c2ccc(-c3ccc(N4C[C@H](C(O)F)OC4=O)cc3F)cn2)n1.O=P(O)(O)O (stereo partly drawn) [compound 125, (R)-3-(3-fluoro-4-(6-(2-vinyl-2H-tetrazol-5-yl)pyridin-3-yl)phenyl)-5-(hydroxyfluoromethyl) oxazolidin-2-one phosphate] | 0.3 | 0.3 |  |  |
| CCCn1nnc(-c2ccc(-c3ccc(N4C[C@@H](C(C)O)OC4=O)cc3F)cn2)n1.O=P(O)(O)O (stereo partly drawn) [compound 106, (S)-3-(3-fluoro-4-(6-(2-propyl-2H-tetrazol-5-yl)pyridin-3-yl)phenyl)-5-(1-hydroxyethyl) oxazolidin-2-one phosphate] | 1.2 | 1 |  |  |
| CCn1nnc(-c2ccc(-c3ccc(N4C[C@H](CO)OC4=O)cc3F)cn2)n1.O=P(O)(O)O [compound 79, (R)-3-(3-fluoro-4-(6-(2-ethyl-2H-tetrazol-5-yl)pyridin-3-yl)phenyl)-5-(hydroxymethyl) oxazolidin-2-one phosphate] | 1.5 | 1.8 |  |  |
| CCC(OP(=O)(O)O)[C@@H]1CN(c2ccc(-c3ccc(-c4nnn(C5CC5)n4)nc3)c(F)c2)C(=O)O1 (stereo partly drawn) [compound 116, (S)-3-(3-fluoro-4-(6-(2-cyclopropyl-2H-tetrazol-5-yl)pyridin-3-yl)phenyl)-5-(1-hydroxypropyl)) oxazolidin-2-one phosphate] |  |  | 0.3 | 0.2 |
| Cn1nnc(-c2ccc(-c3ccc(N4C[C@H](C(O)CF)OC4=O)cc3F)cn2)n1.O=P(O)(O)O (stereo partly drawn) [compound 129, (R)-3-(3-fluoro-4-(6-(2-methyl-2H-tetrazol-5-yl)pyridin-3-yl)phenyl)-5-(1-hydroxy-2-fluoroethyl) oxazolidin-2-one phosphate] | 0.3 | 0.5 |  |  |
| Cn1nnc(-c2ccc(-c3ccc(N4C[C@@H](C(O)F)OC4=O)cc3F)cn2)n1.O=P(O)(O)O (stereo partly drawn) [compound 92, (S)-3-(3-fluoro-4-(6-(2-methyl-2H-tetrazol-5-yl)pyridin-3-yl)phenyl)-5-(hydroxyfluoromethyl) oxazolidin-2-one phosphate] | 0.9 | 0.9 |  |  |
| O=C1O[C@H](C(OP(=O)(O)O)C(F)(F)F)CN1c1ccc(-c2ccc(-c3nnn(C4CC4)n3)nc2)c(F)c1 (stereo partly drawn) [compound 112, (S)-3-(3-fluoro-4-(6-(2-cyclopropyl-2H-tetrazol-5-yl)pyridin-3-yl)phenyl)-5-(1-hydroxy-2-trifluoroethyl) oxazolidin-2-one phosphate] |  |  | 0.9 | 0.9 |
